Experimental data: article PMC10975765 (Pharmaceuticals, 2024)
Read-outs that look alike come from different tables or passages of the source.

Columns and labels:
[1] = system: Salmonella typhimurium TA1535
Method: (§1) In brief, Salmonella typhimurium (TA98, TA100, TA102, TA1535, and TA1537) was cultured in a nutrient broth (12 mL) at 37 °C. […] Later, the mixture was added to 2 mL of top agar containing 0.5 mM L-histidine and 0.5 mM D-biotin. The mixture was agitated and poured onto the minimal agar plate and incubated at 37 °C for 48 h. All experiments were conducted in triplicate. The number of revertant colonies per plate was counted. The MR was calculated from the average of the revertant number divided by the average of negative control revertant number.

[2] = system: Salmonella typhimurium TA102; details: TA102, +S9, positive control
Method: as §1

[3] = system: Salmonella typhimurium TA100
Method: as §1

[4] = system: Salmonella typhimurium TA98; assay: Bacterial reverse mutation test (Ames test), TA98; details: TA98, +S9, positive control
Method: as §1

[5] = system: Salmonella typhimurium TA1537; assay: Bacterial reverse mutation test (Ames test), TA1537
Method: as §1

[6] = system: flies expressing human APP and BACE-1 in the developing eyes; assay: Drosophila eye morphology by scanning electron microscopy; assay type: in vivo, Drosophila melanogaster; details: AD flies, 21 days
Method: All fly stocks were maintained in a standard medium at 25 °C, 60% humidity, and a 12 h/12 h light–dark cycle in constant climate chambers with ICH-compliant light source (BINDER GmbH, Tuttlingen, Germany). […] Flies were cultivated for 21 days at 28 °C, with food changes every three days.
The external compound eyes were then inspected using JSM-IT510 InTouchScope™ SEM Series (JEOL, Peabody, MA, USA) in a vacuum mode.

[7] = biological target: butyrylcholinesterase (BChE) (Equus caballus, UniProt P81908); details: for interaction with donepezil to inhibit BChE: in combination with donepezil; for BChE inhibition (%): Figure 3
[8] = system: isolated rat liver nuclei; details: cited from earlier work
[9] = system: transgenic Drosophila model for AD; details: cited from earlier work
AChE = details: cited from earlier work; for IC50: read-out: AChE IC50
[10] = biological target: acetylcholinesterase (AChE) (Electrophorus electricus, UniProt O42275); details: in combination with donepezil
Method: AChE and BChE inhibition were determined using well-established protocols without modifications. For BACE-1 inhibition, we complied with the manufacturer’s instructions (BACE-1 FRET assay kit, Sigma-Aldrich, St. Louis, MO, USA).
The half-maximal inhibitory concentration (IC50) against AChE, BChE and BACE-1 were calculated using GraphPad Prism (version 9.0, La Jolla, CA, USA) as follows:(2) Y=Bottom+Top−Bottom/1+10^((logIC50−X) × (HillSlope)), where Y is response, decreasing as X increases, X is log of dose or concentration, Top and Bottom are plateaus in same units as Y, and Hillslope is data slope factor or hill slope, unitless.

[11] = rat, in vivo; cited from earlier work
[12] = system: S. typhimurium TA98 and TA100; details: TA98 and TA100, with/without S9 extract; cited from earlier work
β-secretase (BACE-1) = biological target: T1, β-secretase (BACE-1) (Homo sapiens, UniProt P56817); assay: biochemical; assay type: biochemical; details: for BACE-1 inhibition (%): Figure 4
T1 construct: purchased Sigma-Aldrich

human lymphocytes = details: cited from earlier work
BACE-1 = details: cited from earlier work
PC12 cells = details: Aβ25–35-induced oxidative stress in PC12 cells; cited from earlier work
[13] = system: V79 Chinese hamster lung cells; details: cited from earlier work
[14] = cited from earlier work
[15] = sample alone at IC20 (donepezil 0)
[16] = sample alone at IC30 (donepezil 0)

Sequence of butyrylcholinesterase (BChE) (P81908 whole entry): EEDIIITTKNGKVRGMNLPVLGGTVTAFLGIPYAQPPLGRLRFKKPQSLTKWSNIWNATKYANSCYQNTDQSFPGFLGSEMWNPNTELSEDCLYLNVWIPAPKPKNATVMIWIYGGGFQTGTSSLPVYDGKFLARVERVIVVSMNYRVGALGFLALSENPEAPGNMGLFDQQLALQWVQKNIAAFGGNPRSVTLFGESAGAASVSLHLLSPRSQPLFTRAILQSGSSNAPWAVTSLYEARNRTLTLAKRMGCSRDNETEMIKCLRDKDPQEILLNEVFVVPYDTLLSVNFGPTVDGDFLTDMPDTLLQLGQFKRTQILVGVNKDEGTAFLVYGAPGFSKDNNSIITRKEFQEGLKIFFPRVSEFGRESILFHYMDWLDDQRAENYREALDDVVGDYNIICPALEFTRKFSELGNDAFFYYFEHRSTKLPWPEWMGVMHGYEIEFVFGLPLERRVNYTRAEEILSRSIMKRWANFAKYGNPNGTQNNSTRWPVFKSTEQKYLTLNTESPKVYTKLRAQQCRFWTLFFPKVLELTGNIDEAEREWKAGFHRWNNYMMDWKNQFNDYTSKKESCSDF
T1 sequence (P56817 46-501): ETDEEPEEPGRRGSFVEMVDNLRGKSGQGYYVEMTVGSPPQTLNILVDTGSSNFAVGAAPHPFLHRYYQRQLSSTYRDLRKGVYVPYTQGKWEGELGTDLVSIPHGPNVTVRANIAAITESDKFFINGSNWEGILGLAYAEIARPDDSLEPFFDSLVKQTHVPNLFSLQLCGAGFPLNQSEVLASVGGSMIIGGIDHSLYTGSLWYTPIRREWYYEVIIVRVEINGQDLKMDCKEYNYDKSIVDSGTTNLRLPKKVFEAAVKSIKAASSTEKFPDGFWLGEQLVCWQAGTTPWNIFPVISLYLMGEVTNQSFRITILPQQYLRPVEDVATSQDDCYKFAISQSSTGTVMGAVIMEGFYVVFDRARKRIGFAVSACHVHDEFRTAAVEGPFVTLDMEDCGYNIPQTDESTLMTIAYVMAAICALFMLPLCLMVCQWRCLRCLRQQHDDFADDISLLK
Sequence of acetylcholinesterase (AChE) (O42275 24-633): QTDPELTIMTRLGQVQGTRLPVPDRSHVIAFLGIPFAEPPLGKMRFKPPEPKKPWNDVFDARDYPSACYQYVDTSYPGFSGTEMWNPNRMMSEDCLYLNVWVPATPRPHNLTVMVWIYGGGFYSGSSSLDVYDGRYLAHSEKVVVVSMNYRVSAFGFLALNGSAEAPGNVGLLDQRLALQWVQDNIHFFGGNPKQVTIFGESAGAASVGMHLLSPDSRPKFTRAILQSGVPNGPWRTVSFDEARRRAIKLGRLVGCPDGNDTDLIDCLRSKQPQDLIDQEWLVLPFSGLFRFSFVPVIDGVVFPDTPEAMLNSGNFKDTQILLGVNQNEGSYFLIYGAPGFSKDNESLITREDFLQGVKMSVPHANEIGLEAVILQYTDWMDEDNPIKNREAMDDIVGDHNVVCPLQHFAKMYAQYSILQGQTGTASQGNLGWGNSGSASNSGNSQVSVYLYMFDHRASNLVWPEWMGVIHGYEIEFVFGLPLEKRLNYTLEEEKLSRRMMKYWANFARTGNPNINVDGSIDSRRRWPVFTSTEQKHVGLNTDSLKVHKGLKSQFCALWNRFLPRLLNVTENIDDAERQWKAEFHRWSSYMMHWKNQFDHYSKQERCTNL

Nc1ccc2cc3ccccc3cc2c1 [2-AA, 2-aminoanthracen]
MR (mutagenicity ratio) ([1]; TA1535, +S9, positive control): 33.32
MR class ([1]; TA1535, +S9, positive control): (+) ((+): indicates the mutagenicity ratio (MR) is ≥2)
Revertant Colonies ([1]; TA1535, +S9, positive control): 349.83 ± 18.89
MR class [2]: (+) ((+): indicates the mutagenicity ratio (MR) is ≥2)
Revertant Colonies [2]: 960.67 ± 29.07
MR (mutagenicity ratio) ([3]; TA100, +S9, positive control): 10.04
MR class ([3]; TA100, +S9, positive control): (+) ((+): indicates the mutagenicity ratio (MR) is ≥2)
Revertant Colonies ([3]; TA100, +S9, positive control): 876.67 ± 34.21
MR (mutagenicity ratio) [4]: 14.15
MR class [4]: (+) ((+): indicates the mutagenicity ratio (MR) is ≥2)
Revertant Colonies [4]: 1396.00 ± 48.94
MR (mutagenicity ratio) ([5]; TA1537, +S9, positive control): 20.71
MR class ([5]; TA1537, +S9, positive control): (+) ((+): indicates the mutagenicity ratio (MR) is ≥2)
Revertant Colonies ([5]; TA1537, +S9, positive control): 203.67 ± 5.56

Nc1c2ccccc2nc2ccccc12 [9-AA, 9-aminoacridine]
MR (mutagenicity ratio) ([5]; TA1537, −S9, positive control): 86.67
MR class ([5]; TA1537, −S9, positive control): (+) ((+): indicates the mutagenicity ratio (MR) is ≥2)
Revertant Colonies ([5]; TA1537, −S9, positive control): 780.00 ± 24.11

COc1cc2c(cc1OC)C(=O)C(CC1CCN(Cc3ccccc3)CC1)C2 (stereo not shown) [Donepezil, donepezil]
eye morphology (retina degeneration, ommatidia and bristles) ([6]; donepezil 2.5 µM): did not reverse retina degeneration
eye morphology (retina degeneration, ommatidia and bristles) ([6]; donepezil 5 µM): did not reverse retina degeneration
eye morphology (retina degeneration, ommatidia and bristles) ([6]; donepezil 10 µM): eye phenotypes roughly similar to the negative control

O=c1c(O)c(-c2ccc(O)cc2)oc2cc(O)cc(O)c12 [Kaempferol, kaempferol]
interaction with donepezil to inhibit BChE [7]: slight synergism
BChE inhibition (%) [7, 15]: 22%
BChE inhibition (%) [7, 16]: 29%
nuclear DNA damages and lipid peroxidation [8]: induced nuclear DNA damages and lipid peroxidation
memory loss, climbing ability and AChE activity [9]: delayed memory loss by maintaining climbing ability and reducing AChE activity
mode of AChE inhibition (AChE): reversible mixed mode
IC50 (AChE): 12.4 µM
interaction with donepezil to inhibit AChE [10]: slightly antagonized
tumor induction [11]: did not significantly induce tumors
genotoxicity in S. typhimurium [12]: genotoxicity exclusively when the S9 extract was present
interaction with donepezil on BACE-1 (β-secretase (BACE-1); in combination with donepezil): slightly antagonistically
IC50 (β-secretase (BACE-1); read-out: Half-Maximal Inhibitory Concentration (IC50) BACE-1 (converted)): 299 µM
BACE-1 inhibition (%) (β-secretase (BACE-1); [15]): 16%
BACE-1 inhibition (%) (β-secretase (BACE-1); [16]): 29%

[N-]=[N+]=[N-].[Na+] [NaN3, sodium azide]
MR (mutagenicity ratio) ([1]; TA1535, −S9, positive control): 18.90
MR class ([1]; TA1535, −S9, positive control): (+) ((+): indicates the mutagenicity ratio (MR) is ≥2)
Revertant Colonies ([1]; TA1535, −S9, positive control): 214.17 ± 9.51
MR (mutagenicity ratio) ([3]; TA100, −S9, positive control): 17.14
MR class ([3]; TA100, −S9, positive control): (+) ((+): indicates the mutagenicity ratio (MR) is ≥2)
Revertant Colonies ([3]; TA100, −S9, positive control): 1145.33 ± 52.03

O=c1c(O)c(-c2ccc(O)c(O)c2)oc2cc(O)cc(O)c12 [Quercetin, quercetin]
interaction with donepezil to inhibit BChE [7]: slight synergism
BChE inhibition (%) [7, 15]: 20%
BChE inhibition (%) [7, 16]: 32%
micronuclei induction (human lymphocytes): induced micronuclei
interaction with donepezil to inhibit AChE [10]: slightly antagonized
neuroprotective effects (PC12 cells): demonstrated neuroprotective effects
tumor induction [11]: did not significantly induce tumors
genotoxicity in S. typhimurium [12]: genotoxicity in the bacterial strains both with and without the S9 extract
micronuclei induction [13]: induced micronuclei
BACE-1 inhibition (%) (β-secretase (BACE-1); [15]): 22%
BACE-1 inhibition (%) (β-secretase (BACE-1); [16]): 33%

O=C(/C=C/c1ccc(O)c(O)c1)O[C@H](Cc1ccc(O)c(O)c1)C(=O)O [rosmarinic acid]
crossing of the BBB [14]: reported to cross the BBB
